Assay results published in ChEMBL document CHEMBL1201862, “PubChem BioAssay data set” (2004).
Calls of active or inactive are those of the source.

Key:
Vero [1] = experiment: mammalian cell viability reduction – secondary assay, cytotoxicity control for West Nile virus antiviral project, dose response (AID 1650); type: functional; details: Chlorocebus sabaeus
Vero [2] = experiment: inhibition of WNV-induced cytopathic effect – cell-based, CPE readout (AID 1621); type: functional; details: Chlorocebus sabaeus
[3] = Trypanosoma cruzi growth suppression in host cells – NIH3T3 host cells, beta-gal luminescence, confirmation (AID 2044); type: functional, cell-based;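 note: intracellular parasites grown in NIH/3T3 mouse fibroblasts as host cells; luminescent beta-galactosidase reporter signal from transgenic T. cruzi replicating inside host cells; inhibitors lower the luminescence signal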
[4] = NIH3T3 cell viability loss – ATP luminescence, mouse fibroblasts, counter-screen, dose response (AID 2010); type: functional, cell-based;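 note: cells exposed to compound for about 90 hours before reading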
cells [5] = experiment: cells
HEK293 [6] = experiment: inhibition of NOD1-driven NF-kB reporter – cell-based, luminescence, uHTS, primary screen (AID 1578); type: functional; details: Homo sapiens
[7] = tested on: Streptococcus sp. 'group A'; experiment: Streptococcus pyogenes SK(-)GAS viability under kanamycin – luminescence, BacTiterGlo, confirmation, counter-screen for streptokinase expression inhibitor project, dose response (AID 1900); type: functional, organism-based
BJ [8] = experiment: BJ-TERT fibroblast viability loss – cell-based, RAS-independent, luminescence, dose response (AID 1933); type: functional; details: Homo sapiens
HEK293 [9] = experiment: cells; type: functional, cell-based; details: Homo sapiens
cells [10] = type: functional, cell-based
BJ [11] = experiment: cells; type: functional, cell-based; details: Homo sapiens
HEK293 [12] = experiment: cells; type: functional, cell-based; details: Homo sapiens; remark: listed apart in the source
[13] = biological target: Nucleotide-binding oligomerization domain-containing protein 2 (Homo sapiens, UniProt Q9HC29); experiment: inhibition of NOD2-driven NF-kB reporter – cell-based, luminescence, uHTS, HEK293 (AID 1566); type: functional
HEK293 [14] = experiment: NOD2 signaling inhibitors in MDP-stimulated cells, cell-based, uHTS, luminescence (AID 2001); type: functional; details: Homo sapiens
HEK293 [15] = experiment: cells; type: functional, cell-based; details: Homo sapiens; remark: listed apart in the source
[16] = Luminescence-based dose response cell-based high throughput screening assay for cytotoxic compounds using the IEC-6 intestinal epithelial cell line. [Related pubchem assays: 1858 (Summary AID.), 1825 (Counterscreen.), 1907 (Confirmation screen.)]; type: functional
cells [17] = type: functional, cell-based; remark: listed apart in the source
BJ [18] = experiment: BJ-TERT-LT-ST fibroblast viability loss – cell-based, RAS-independent, luminescence, dose response (AID 1935); type: functional; details: Homo sapiens;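 note: BJ fibroblasts immortalized with TERT plus LT and ST oncogenes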
[19] = DRD fibroblast viability loss – cell-based, non-viral oncogenic, luminescence, dose response (AID 1934); type: functional; details: Homo sapiens
Streptococcus = experiment: GAS UMAA2166 growth inhibition – luminescence, BacTiterGlo, counter-screen for streptokinase expression inhibitor project, dose response (AID 1915); type: functional, organism-based;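 note: potency for reduction of bacterial viability or growth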
HEK293 [20] = experiment: EBV LMP1 TES2 canonical NF-kB signalling blockers – cell-based, HEK293, luciferase, cherry-pick, dose response (AID 588343); type: functional; details: Homo sapiens
[21] = reduction of Shn3 3'UTR-driven luciferase in osteoblasts – cell-based, Clone20 osteoblasts, firefly luciferase, cherry-picked, dose response (AID 624132); type: functional;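 note: firefly luciferase luminescence from reporter carrying the Shn3 3'UTR in osteoblasts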
[22] = loss of viability in HepG2 cells – cell-based, CellTiter-Glo, cherry-picked, cytotoxicity control for Shn3 inhibitor project, dose response (AID 624134); type: functional
[23] = non-specific 3'UTR reporter inhibition in Clone20-Shn3RL – cell-based, Renilla luciferase, cherry-picked, counter-screen for Shn3 inhibitor project, dose response (AID 624133); type: functional

Sequence of Nucleotide-binding oligomerization domain-containing protein 2 (Q9HC29 whole entry, the tested form may be a part): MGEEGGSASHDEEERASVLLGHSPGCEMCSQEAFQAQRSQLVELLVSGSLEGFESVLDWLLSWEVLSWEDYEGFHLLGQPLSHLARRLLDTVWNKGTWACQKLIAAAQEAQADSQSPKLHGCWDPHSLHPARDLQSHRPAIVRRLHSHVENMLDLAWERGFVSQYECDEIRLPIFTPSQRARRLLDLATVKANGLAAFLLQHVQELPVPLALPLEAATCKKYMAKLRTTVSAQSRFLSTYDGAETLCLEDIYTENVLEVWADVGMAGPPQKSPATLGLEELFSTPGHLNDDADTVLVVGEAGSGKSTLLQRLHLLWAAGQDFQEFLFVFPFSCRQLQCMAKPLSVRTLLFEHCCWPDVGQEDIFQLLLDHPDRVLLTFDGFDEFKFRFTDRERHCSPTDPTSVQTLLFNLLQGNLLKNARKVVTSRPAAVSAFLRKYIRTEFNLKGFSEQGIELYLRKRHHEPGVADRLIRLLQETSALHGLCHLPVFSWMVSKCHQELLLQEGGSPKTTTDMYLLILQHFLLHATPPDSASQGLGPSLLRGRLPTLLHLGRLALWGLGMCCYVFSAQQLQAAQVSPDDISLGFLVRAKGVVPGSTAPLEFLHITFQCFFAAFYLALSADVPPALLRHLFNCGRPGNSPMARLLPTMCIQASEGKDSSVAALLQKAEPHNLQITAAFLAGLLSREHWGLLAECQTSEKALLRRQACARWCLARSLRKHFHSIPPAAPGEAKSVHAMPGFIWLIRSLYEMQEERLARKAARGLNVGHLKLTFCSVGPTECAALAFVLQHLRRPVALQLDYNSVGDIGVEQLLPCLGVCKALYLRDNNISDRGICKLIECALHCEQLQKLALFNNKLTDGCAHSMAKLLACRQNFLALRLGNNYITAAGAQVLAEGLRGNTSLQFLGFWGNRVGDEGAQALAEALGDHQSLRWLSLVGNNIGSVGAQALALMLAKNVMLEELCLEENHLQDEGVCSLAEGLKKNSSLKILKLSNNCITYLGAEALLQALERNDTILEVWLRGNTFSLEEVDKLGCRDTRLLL

## CN(C)CCCNC(=O)c1cc2sc3ccccc3c2s1
Vero [1]
  CC50: 14.6 µM (active)
Vero [2]
  IC50: 21.4 µM (active)

## O=C1NC(=O)N(C2CCCCCC2)C(=O)/C1=C/NC1CCN(Cc2ccccc2)CC1
[3]
  EC50: < 0.1 µM (active)
[4]
  EC50: 23.5 µM (active)
Cells [5]
  EC50: 0.361 µM (active)

## CC(=O)NC(c1ccc(Cl)cc1Cl)c1ccc2cccnc2c1O (stereo unspecified)
HEK293 [6]
  EC50: > 20 µM (inactive)
[7]
  EC50: 4.98 µM (active)
BJ [8]
  EC50: 0.837 µM (active)
HEK293 [9]
  IC50: 12 µM (active)
Cells [10]
  EC50: 4.6 µM (active)
BJ [11]
  EC50: 6.93 µM (active)
HEK293 [12]
  IC50: > 20 µM (inactive)
[13]
  EC50: > 20 µM (inactive)
HEK293 [14]
  IC50: > 20 µM (inactive)
[3]
  EC50: 0.163 µM (active)
HEK293 [15]
  IC50: > 20 µM (inactive)
[16]
  IC50: 0.386 µM (active)
Cells [17]
  EC50: > 350 µM (not active)
[4]
  EC50: 0.192 µM (active)
BJ [18]
  EC50: 2.82 µM (inconclusive)
[19]
  EC50: 0.95 µM (active)
Streptococcus
  EC50: 6.93 µM (active)
HEK293 [20]
  AC50: 4.24 µM (active)
[21]
  AC50: 0.465 µM (active)
[22]
  AC50: 0.764 µM (active)
[23]
  AC50: 0.778 µM (active)
